Test results taken from patent US20220324835A1 (Nurix Therapeutics, Inc., priority 2018, published 2022).

Legend:
Cbl-b [1] = molecular target: T1, Cbl-b (Homo sapiens, UniProt Q13191); test: Cbl-b inhibition assay (Cbl-b activity assay, FRET, Biological Example 1; 100 mM NaCl, 60 nM Src kinase); assay type: biochemical; details: upper bound stated in text lists; read-out: IC50 values in the Cbl-b inhibition assay of Biological Example 1
In short: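 Inhibition is read as loss of FRET signal. The signal arises when Src-phosphorylated, N-terminal biotinylated Avi-Cbl-b (captured by streptavidin-terbium) binds UbcH5B carrying covalently linked Bodipy-Fluorescein-tagged ubiquitin.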

T-cell [2] = test: IL-2 secretion from T-cells co-stimulated with anti-CD3 and anti-CD28 antibody (Biological Example 2); assay type: cell-based, human; details: Homo sapiens, T-cell, primary human total T-cells, baseline = anti-CD3/anti-CD28 stimulated cells without inhibitor, read-out: IL-2 secretion, Anti-CD3/Anti-CD28 stimulation, fold change over baseline; for fold induction at 0.3 µM: 0.3 μM compound; for fold induction at 1 µM: 1 μM compound; for fold induction at 4 µM: 4 μM compound
In short: (§1)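 Values are fold-change over baseline: readings (IL-2 release, CD25 staining) from inhibitor-treated T-cells divided against untreated cells […]. No detailed procedure stated.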

T-cell [3] = test: CD25 cell surface staining on T-cells co-stimulated with anti-CD3 and anti-CD28 antibody (Biological Example 2); assay type: cell-based, human; details: Homo sapiens, T-cell, primary human total T-cells, baseline = anti-CD3/anti-CD28 stimulated cells without inhibitor, read-out: CD25 staining, Anti-CD3/Anti-CD28 stimulation, fold change over baseline; for fold induction at 0.3 µM: 0.3 μM compound; for fold induction at 1 µM: 1 μM compound; for fold induction at 4 µM: 4 μM compound
In short: as §1

Cbl-b [4] = molecular target: T1, Cbl-b; test: Cbl-b activity assay (Cbl-b inhibition assay), TR-FRET of Cbl-b interaction with UbcH5B-Ub; assay type: biochemical; details: assay buffer with 100 mM NaCl, 60 nM Src kinase; read-out: Cbl-b activity IC50
In short: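 Compound-treated Cbl-b was incubated 1.5 h with Src kinase (60 nM final; 30 nM for asterisked values, which also used 50 mM instead of 100 mM NaCl), 1 mM ATP and 5 mM MgCl2. Binding to fluorescent Ub-loaded UbcH5B (C85K mutant) was then read by TR-FRET after 1 h more.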

T-cell [5] = test: IL-2 secretion from T-cells stimulated with anti-CD3 antibody alone (Biological Example 2); assay type: cell-based; details: primary human total T-cells, read-out: IL-2 secretion, Anti-CD3 stimulation, fold change over baseline; for fold induction at 1 µM: 1 μM compound; for fold induction at 8 µM: 8 μM compound
T-cell [6] = test: CD25 cell surface staining on T-cells stimulated with anti-CD3 antibody alone (Biological Example 2); assay type: cell-based; details: primary human total T-cells, baseline = anti-CD3/anti-CD28 stimulated cells without inhibitor, read-out: CD25 staining, Anti-CD3 stimulation, fold change over baseline; for fold induction at 1 µM: 1 μM compound; for fold induction at 8 µM: 8 μM compound

T1 sequence (Q13191 36-427): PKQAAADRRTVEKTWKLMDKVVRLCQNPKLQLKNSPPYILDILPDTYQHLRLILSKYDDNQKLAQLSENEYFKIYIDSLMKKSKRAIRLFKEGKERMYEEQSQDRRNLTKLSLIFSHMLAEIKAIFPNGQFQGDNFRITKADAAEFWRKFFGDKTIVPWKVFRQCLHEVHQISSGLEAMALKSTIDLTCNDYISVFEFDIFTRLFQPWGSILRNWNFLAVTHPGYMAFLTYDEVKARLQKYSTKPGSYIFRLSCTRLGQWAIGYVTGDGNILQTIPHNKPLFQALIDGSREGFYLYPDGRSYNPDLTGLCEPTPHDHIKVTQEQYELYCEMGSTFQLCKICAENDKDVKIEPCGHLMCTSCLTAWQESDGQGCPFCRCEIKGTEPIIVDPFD

Cn1cnnc1-c1cnn(C)c1-c1cccc(N2Cc3c(cccc3C(F)(F)F)C2=O)c1 [Compound 523, 2-(3-(l-methyl-4-(4-methyl-4H-1,2,4-triazol-3-yl)-1H-pyrazol-5-yl)phenyl)-4-(trifluoromethyl)isoindolin-1-one]
IC50 (Cbl-b [1]): ≤ 300 nM
fold induction at 0.3 µM (T-cell [2]): 1.01 to 2.5
fold induction at 1 µM (T-cell [2]): 1.01 to 2.5
fold induction at 0.3 µM (T-cell [3]): 1.01 to 1.3
fold induction at 1 µM (T-cell [3]): 1.01 to 1.3
IC50 (Cbl-b [4]): 100 to 300 nM
fold induction at 1 µM (T-cell [5]): 0.051 to 0.1
fold induction at 1 µM (T-cell [6]): 0.601 to 0.8

Cn1cnnc1CC1(c2cccc(N3Cc4c(cc(CN5CC6CC6(C)C5)cc4C(F)(F)F)C3=O)c2)COC1 (stereo not drawn) [Compound 491, 6-((1-methyl-3-azabicyclo[3.1.0]hexan-3-yl)methyl)-2-(3-(3-((4-methyl-4H-1,2,4-triazol-3-yl)methyl)oxetan-3-yl)phenyl)-4-(trifluoromethyl)isoindolin-1-one]
IC50 (Cbl-b [1]): ≤ 100 nM
fold induction at 0.3 µM (T-cell [2]): > 7.5
fold induction at 1 µM (T-cell [2]): > 7.5
fold induction at 0.3 µM (T-cell [3]): 1.01 to 1.3
fold induction at 1 µM (T-cell [3]): 1.01 to 1.3
IC50 (Cbl-b [4]): < 100 nM
fold induction at 1 µM (T-cell [5]): > 0.201
fold induction at 1 µM (T-cell [6]): > 1

Cn1cnnc1CC1(c2cccc(N3Cc4c(cc(CN5CC(F)C5(C)C)cc4C(F)(F)F)C3=O)c2)COC1 (stereo not drawn) [Compound 536, 6-((3-fluoro-2,2-dimethylazetidin-1-yl)methyl)-2-(3-(3-((4-methyl-4H-1,2,4-triazol-3-yl)methyl)oxetan-3-yl)phenyl)-4-(trifluoromethyl)isoindolin-1-one]
IC50 (Cbl-b [1]): ≤ 100 nM
fold induction at 0.3 µM (T-cell [2]): 2.51 to 5
fold induction at 1 µM (T-cell [2]): 5 to 7.5
fold induction at 0.3 µM (T-cell [3]): 1.31 to 1.5
fold induction at 1 µM (T-cell [3]): 1.31 to 1.5
IC50 (Cbl-b [4]): < 100 nM
fold induction at 1 µM (T-cell [5]): 0.101 to 0.15
fold induction at 1 µM (T-cell [6]): > 1

Cn1cnnc1CC1(c2cccc(N3Cc4c(cc(CN5CC(C)(C#N)C5)cc4C(F)(F)F)C3=O)c2)COC1 [Compound 425, 3-methyl-1-((2-(3-(3-((4-methyl-4H-1,2,4-triazol-3-yl)methyl)oxetan-3-yl)phenyl)-3-oxo-7-(trifluoromethyl)isoindolin-5-yl)methyl)azetidine-3-carbonitrile]
IC50 (Cbl-b [1]): ≤ 100 nM
fold induction at 0.3 µM (T-cell [2]): 2.51 to 5
fold induction at 1 µM (T-cell [2]): > 7.5
fold induction at 4 µM (T-cell [2]): > 7.5
fold induction at 0.3 µM (T-cell [3]): 1.01 to 1.3
fold induction at 1 µM (T-cell [3]): 1.31 to 1.5
fold induction at 4 µM (T-cell [3]): 1.51 to 1.75
IC50 (Cbl-b [4]): < 100 nM
fold induction at 1 µM (T-cell [5]): 0.151 to 0.2
fold induction at 8 µM (T-cell [5]): 0.051 to 0.1
fold induction at 1 µM (T-cell [6]): 0.601 to 0.8
fold induction at 8 µM (T-cell [6]): < 0.6

Cn1cnnc1C(F)(F)C1(c2cccc(N3Cc4c(cc(CN5CC[C@H](F)C5)cc4C(F)(F)F)C3=O)c2)CC1 [Compound 462, (S)-2-(3-(1-(difluoro(4-methyl-4H-1,2,4-triazol-3-yl)methyl)cyclopropyl)phenyl)-6-((3-fluoropyrrolidin-1-yl)methyl)-4-(trifluoromethyl)isoindolin-1-one]
IC50 (Cbl-b [1]): ≤ 100 nM
fold induction at 0.3 µM (T-cell [2]): 5 to 7.5
fold induction at 1 µM (T-cell [2]): > 7.5
fold induction at 0.3 µM (T-cell [3]): 1.01 to 1.3
fold induction at 1 µM (T-cell [3]): 1.31 to 1.5
IC50 (Cbl-b [4]): < 100 nM
fold induction at 1 µM (T-cell [5]): > 0.201
fold induction at 1 µM (T-cell [6]): > 1

C[C@H](Cc1nncn1C)c1cccc(N2Cc3c(cc([C@@H](C)N4CC(O)C4)cc3C(F)(F)F)C2=O)c1 [Compound 405, 6-((R)-1-(3-hydroxyazetidin-1-yl)ethyl)-2-(3-((R)-1-(4-methyl-4H-1,2,4-triazol-3-yl)propan-2-yl)phenyl)-4-(trifluoromethyl)isoindolin-1-one]
IC50 (Cbl-b [1]): ≤ 100 nM
fold induction at 0.3 µM (T-cell [2]): 2.51 to 5
fold induction at 1 µM (T-cell [2]): 5 to 7.5
fold induction at 4 µM (T-cell [2]): > 7.5
fold induction at 0.3 µM (T-cell [3]): 1.01 to 1.3
fold induction at 1 µM (T-cell [3]): 1.31 to 1.5
fold induction at 4 µM (T-cell [3]): 1.31 to 1.5
IC50 (Cbl-b [4]): < 100 nM
fold induction at 1 µM (T-cell [5]): > 0.201
fold induction at 8 µM (T-cell [5]): > 0.201
fold induction at 1 µM (T-cell [6]): 0.801 to 1
fold induction at 8 µM (T-cell [6]): > 1

Cc1cc(C(=O)Nc2cccc(C3(Cc4nncn4C)CC(F)(F)C3)c2)nc(C2CC2)n1 [Compound 526, 2-cyclopropyl-N-(3-(3,3-difluoro-1-((4-methyl-4H-1,2,4-triazol-3-yl)methyl)cyclobutyl)phenyl)-6-methylpyrimidine-4-carboxamide]
IC50 (Cbl-b [1]): ≤ 100 nM
fold induction at 0.3 µM (T-cell [2]): 5 to 7.5
fold induction at 1 µM (T-cell [2]): > 7.5
fold induction at 0.3 µM (T-cell [3]): 1.01 to 1.3
fold induction at 1 µM (T-cell [3]): 1.01 to 1.3
IC50 (Cbl-b [4]): < 100 nM
fold induction at 1 µM (T-cell [5]): > 0.201
fold induction at 1 µM (T-cell [6]): > 1

Cn1cnnc1CC1(c2cccc(N3Cc4c(cc(CN5CCS(=O)(=O)CC5)cc4C(F)(F)F)C3=O)c2)COC1 [Compound 434, 4-{[2-(3-{3-[(4-methyl-4H-1,2,4-triazol-3-yl)methyl]oxetan-3-yl}phenyl)-3-oxo-7-(trifluoromethyl)-2,3-dihydro-1H-isoindol-5-yl]methyl}-1λ^6-thiomorpholine-1,1-dione]
IC50 (Cbl-b [1]): ≤ 100 nM
fold induction at 0.3 µM (T-cell [2]): 2.51 to 5
fold induction at 1 µM (T-cell [2]): 2.51 to 5
fold induction at 0.3 µM (T-cell [3]): 1.01 to 1.3
fold induction at 1 µM (T-cell [3]): 1.01 to 1.3
IC50 (Cbl-b [4]): < 100 nM
fold induction at 1 µM (T-cell [5]): 0.101 to 0.15
fold induction at 1 µM (T-cell [6]): > 1

CN1CC[C@@H](O)[C@@H](Cc2cc3c(c(C(F)(F)F)c2)CN(c2cccc(C4(Cc5nncn5C)COC4)c2)C3=O)C1 (racemic) [Compound 532, 6-(((cis)-4-hydroxy-1-methylpiperidin-3-yl)methyl)-2-(3-(3-((4-methyl-4H-1,2,4-triazol-3-yl)methyl)oxetan-3-yl)phenyl)-4-(trifluoromethyl)isoindolin-1-one]
IC50 (Cbl-b [1]): ≤ 100 nM
fold induction at 0.3 µM (T-cell [2]): 1.01 to 2.5
fold induction at 1 µM (T-cell [2]): 2.51 to 5
fold induction at 0.3 µM (T-cell [3]): 1.01 to 1.3
fold induction at 1 µM (T-cell [3]): 1.01 to 1.3
IC50 (Cbl-b [4]): < 100 nM
fold induction at 1 µM (T-cell [5]): 0.101 to 0.15
fold induction at 1 µM (T-cell [6]): 0.801 to 1

CN(c1cc2c(c(C(F)(F)F)c1)CN(c1cccc([C@@](C)(F)C(F)(F)c3nncn3C)c1)C2=O)[C@H]1CNC[C@H]1F [Example 549, 6-(((3S,4R)-4-fluoropyrrolidin-3-yl)(methyl)amino)-2-(3-((R)-1,1,2-trifluoro-1-(4-methyl-4H-1,2,4-triazol-3-yl)propan-2-yl)phenyl)-4-(trifluoromethyl)iso-indolin-1-one]
IC50 (Cbl-b [1]): ≤ 300 nM
fold induction at 0.3 µM (T-cell [2]): 1.01 to 2.5
fold induction at 1 µM (T-cell [2]): 2.51 to 5
fold induction at 0.3 µM (T-cell [3]): 1.01 to 1.3
fold induction at 1 µM (T-cell [3]): 1.31 to 1.5
IC50 (Cbl-b [4]): 100 to 300 nM
fold induction at 1 µM (T-cell [5]): 0.151 to 0.2
fold induction at 1 µM (T-cell [6]): 0.801 to 1

Cn1cnnc1CC1(c2cccc(NC(=O)c3cc(CN4CCC5CC54)cc(C4CC4)n3)c2)COC1 (stereo not drawn) [Compound 497, 4-{2-azabicyclo[3.1.0]hexan-2-ylmethyl}-6-cyclopropyl-N-(3-{3-[(4-methyl-1,2,4-triazol-3-yl)methyl]oxetan-3-yl}phenyl)pyridine-2-carboxamide]
IC50 (Cbl-b [1]): ≤ 100 nM
fold induction at 0.3 µM (T-cell [2]): > 7.5
fold induction at 1 µM (T-cell [2]): > 7.5
fold induction at 0.3 µM (T-cell [3]): 1.31 to 1.5
fold induction at 1 µM (T-cell [3]): 1.31 to 1.5
IC50 (Cbl-b [4]): < 100 nM
fold induction at 1 µM (T-cell [5]): > 0.201
fold induction at 1 µM (T-cell [6]): > 1

Cn1cnnc1C(F)(F)[C@](C)(F)c1cccc(N2Cc3c(cc(CN4CC[C@H](C#N)C4)cc3C(F)(F)F)C2=O)c1 [Compound 454, (S)-1-((3-oxo-2-(3-((R)-1,1,2-trifluoro-1-(4-methyl-4H-1,2,4-triazol-3-yl)propan-2-yl)phenyl)-7-(trifluoromethyl)isoindolin-5-yl)methyl)pyrrolidine-3-carbonitrile]
IC50 (Cbl-b [1]): ≤ 100 nM
fold induction at 0.3 µM (T-cell [2]): 5 to 7.5
fold induction at 1 µM (T-cell [2]): > 7.5
fold induction at 4 µM (T-cell [2]): > 7.5
fold induction at 0.3 µM (T-cell [3]): 1.01 to 1.3
fold induction at 1 µM (T-cell [3]): 1.31 to 1.5
fold induction at 4 µM (T-cell [3]): 1.31 to 1.5
IC50 (Cbl-b [4]): < 100 nM
fold induction at 1 µM (T-cell [5]): > 0.201
fold induction at 8 µM (T-cell [5]): > 0.201
fold induction at 1 µM (T-cell [6]): > 1
fold induction at 8 µM (T-cell [6]): > 1
